The record followed here is PubChem BioAssay (NCI).

Test systems include HS 578T breast; HT29 colon; A549 NSCLC; KM20L2 colon; HL-60(TB) leukemia; HCT-116 colon; M19-MEL melanoma; SF-268 CNS; OVCAR-5 ovarian; MDA-MB-435.
Holding throughout (test): NCI-60 cell line screen, 48 h

“And” between values parts separate entries of the source, which are not always exact repeats. Equal values may be shown once.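 Growth conditions: 96-well plates. Treatment: test compound, 48 hours, 5 concentrations. Analysis: linear interpolation between bracketing concentrations; unreached endpoints set to highest concentration. Abbreviation: GI50, concentration required for 50% inhibition of growth. The concentration for full growth arrest is given as TGI.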

As for `COc1ccc(C2C(C)C(=O)C(C)C(c3ccc(OC)cc3)N2N=O)cc1` (stereo not drawn), the TGI is 890 µM in the test on HS 578T breast; > 1000 µM with HT29 colon; 750 µM and > 1000 µM in the test with A549 NSCLC; > 1000 µM in the test with KM20L2 colon; > 1000 µM in the test with HL-60(TB) leukemia; 455 µM in the test with HCT-116 colon. Moreover, the TGI in the test with M19-MEL melanoma was > 1000 µM; in the test on SF-268 CNS, > 1000 µM; in the test with OVCAR-5 ovarian it was > 977 µM; with MDA-MB-435, 343 µM. The GI50 in the test with A549 NSCLC was 409 µM; in the test with HL-60(TB) leukemia it was > 750 µM; in the test on M19-MEL melanoma, > 1000 µM; in the test with SF-268 CNS, 78.1 µM.
For `CC(C)NC(=O)CCN(C(=O)O)S(=O)(=O)c1ccc(NC(=O)c2ccccc2)cc1`, the TGI was > 100 µM with HT29 colon; > 71.2 µM in the test on A549 NSCLC; > 100 µM in the test on KM20L2 colon; > 64 µM in the test with HL-60(TB) leukemia; > 54.1 µM in the test on HCT-116 colon; > 89.2 µM in the test with M19-MEL melanoma. The TGI with SF-268 CNS and in the test with OVCAR-5 ovarian was > 100 µM each time.
Consider `Cc1ccc(NC(=O)/C(Cl)=C(/Cl)C(=O)O)cc1`, for which the TGI is 35 µM in the test with HT29 colon; > 100 µM in the test with A549 NSCLC; 40.3 µM in the test on KM20L2 colon; 4.36 µM in the test on HL-60(TB) leukemia; 28.2 µM in the test with HCT-116 colon; 29.5 µM in the test with M19-MEL melanoma. For the same molecule, the TGI was determined as 42 µM in the test on SF-268 CNS and 37.6 µM in the test with OVCAR-5 ovarian.
For the molecule `Cc1ccc(S(=O)OCC23CC4CC(CC(C4)C2)C3)cc1` (stereo not drawn), the TGI in the test with HT29 colon, in the test with A549 NSCLC, in the test with KM20L2 colon, with HL-60(TB) leukemia, in the test on HCT-116 colon and in the test on M19-MEL melanoma was > 100 µM in each case. For the same molecule, the TGI in the test on SF-268 CNS and in the test with OVCAR-5 ovarian was > 100 µM each time.
Regarding `NCCNCc1c2ccccc2c(CNCCN)c2ccccc12`, the TGI in the test with HT29 colon is > 100 µM; in the test with A549 NSCLC, 38.7 µM; with KM20L2 colon it was 74.1 µM; in the test on HL-60(TB) leukemia, 58.6 µM; in the test with HCT-116 colon it was 48.3 µM; in the test with M19-MEL melanoma, 84.4 µM. Moreover, the TGI in the test on SF-268 CNS came to 27.4 µM; in the test on OVCAR-5 ovarian, 97.5 µM.
As to `Cc1cc(C)nc(NS(=O)(=O)c2ccc(Nc3c4ccc(Cl)cc4nc4c(C(=O)NCCN(C)C)cccc34)cc2)n1`, the TGI in the test on HT29 colon, with A549 NSCLC, with KM20L2 colon, in the test with HL-60(TB) leukemia, in the test with HCT-116 colon and in the test with M19-MEL melanoma was > 100 µM in each case. Further, the TGI in the test on SF-268 CNS and in the test on OVCAR-5 ovarian was > 100 µM each time.
For the molecule `COC(=O)C(Cc1nc2ccccc2nc1C)/C(=N\NC(N)=O)C(=O)Nc1cccc([N+](=O)[O-])c1` (stereo not drawn), the TGI in the test with HT29 colon, with A549 NSCLC, with KM20L2 colon, in the test with HL-60(TB) leukemia, with HCT-116 colon and in the test on M19-MEL melanoma was > 100 µM in each case. In addition, the TGI in the test with SF-268 CNS and in the test on OVCAR-5 ovarian was > 100 µM in each case.
For the molecule `Clc1ccc(-c2c(C3=NCCCN3)nnn2-c2ccccc2)cc1`, the TGI in the test on HT29 colon is > 100 µM; with A549 NSCLC, > 100 µM; in the test on KM20L2 colon, > 100 µM; with HL-60(TB) leukemia, 36.6 µM; in the test on HCT-116 colon, > 100 µM; with M19-MEL melanoma, > 100 µM. The TGI in the test with SF-268 CNS and in the test with OVCAR-5 ovarian was > 100 µM throughout.
As for `C=C[C@]1(C)CCC2=C(CCC3C2(C)CCC[C@@]3(C)COC(C)=O)C1` (stereo partly drawn), the TGI is 33.9 µM with HT29 colon; 52.5 µM in the test on A549 NSCLC; 33.5 µM with KM20L2 colon; 36.4 µM with HL-60(TB) leukemia; 30.9 µM with HCT-116 colon; 50.8 µM in the test with M19-MEL melanoma. In addition, the TGI worked out at 40 µM in the test on SF-268 CNS and 32.8 µM in the test on OVCAR-5 ovarian.
For `COc1ccc2nc3cc(Cl)ccc3c(Sc3ccc([N+](=O)[O-])cc3)c2c1`, the TGI with HT29 colon, with A549 NSCLC, in the test on KM20L2 colon, with HL-60(TB) leukemia, in the test with HCT-116 colon and with M19-MEL melanoma was > 100 µM each time. Besides, the TGI in the test on SF-268 CNS and in the test on OVCAR-5 ovarian was > 100 µM each time. Besides, the GI50 in the test on A549 NSCLC, in the test on KM20L2 colon, in the test on HCT-116 colon, in the test on M19-MEL melanoma, in the test with SF-268 CNS and in the test with OVCAR-5 ovarian was > 100 µM in each case.
`C=C(C(=C)P(=S)(c1ccccc1)c1ccccc1)P(=S)(c1ccccc1)c1ccccc1`: the TGI in the test with HT29 colon, with A549 NSCLC, in the test with KM20L2 colon, with HL-60(TB) leukemia, in the test on HCT-116 colon and in the test with M19-MEL melanoma was > 100 µM throughout. The TGI with SF-268 CNS and with OVCAR-5 ovarian was > 100 µM in each case.
`COc1ccc(C(=O)C(c2ccc(OCc3ccccc3)cc2)c2ccc(OCc3ccccc3)cc2)cc1`: the TGI in the test on HT29 colon, with A549 NSCLC, with KM20L2 colon, in the test on HL-60(TB) leukemia, in the test on HCT-116 colon and in the test on M19-MEL melanoma was > 100 µM throughout. The TGI in the test on SF-268 CNS and in the test on OVCAR-5 ovarian was > 100 µM in each case.
